This is an account of results in EP4745136A1, “PROTEIN TYROSINE PHOSPHATASE INHIBITOR, COMPOSITION COMPRISING SAME, AND MEDICAL USE THEREOF” (Shenzhen Zhongge Biological Technology Co., Ltd., priority 2023, dated 2025).

Structures are written as SMILES.

The target in one assay is T1, PTPN2 (Homo sapiens, UniProt P17706).
T1 construct: purchased Sino biological 10570-H20B
T1 sequence (P17706 1-415): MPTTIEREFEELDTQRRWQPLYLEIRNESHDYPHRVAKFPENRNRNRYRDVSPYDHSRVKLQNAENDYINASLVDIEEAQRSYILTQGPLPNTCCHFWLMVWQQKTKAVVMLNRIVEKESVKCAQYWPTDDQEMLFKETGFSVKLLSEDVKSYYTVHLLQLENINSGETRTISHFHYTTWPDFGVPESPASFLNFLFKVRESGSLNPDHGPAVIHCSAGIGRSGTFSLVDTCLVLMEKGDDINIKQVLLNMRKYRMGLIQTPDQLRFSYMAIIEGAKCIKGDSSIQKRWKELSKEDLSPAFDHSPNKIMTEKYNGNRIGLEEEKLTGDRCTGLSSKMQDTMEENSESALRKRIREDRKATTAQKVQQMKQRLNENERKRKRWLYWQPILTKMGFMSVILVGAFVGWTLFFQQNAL
Briefly: PTPN2 inhibitory activity assay (HTRF). Type of assay: biochemical. The following applies: PTPN2 final concentration 1 nM, substrate 1 µM, 40 min at room temperature. As to the method:
The present invention employs HTRF assay to characterize the inhibitory activity of compounds against PTPN2. The specific experimental process was as follows: compounds were transferred to a 384-well plate (PE# 6007290) using ECHO, and enzymatic reaction buffer (50 mM HEPES pH 7.5, 10 mM EDTA,0.01% Tween 20, 2 mM DTT) was prepared. PTPN2 (Sino biological #10570-H20B) was diluted in the reaction buffer, PTPN2 (final concentration 1 nM) was added and incubated with the compound at room temperature for 10 min, then the substrate (final concentration 1 µM) (biotin-(NH-CH2-CH2-O-CH2-CH2-O-CH2-CO)-T-R-D-I-(PY)-E-T-D-Y-Y-R-K-K-NH2) (Genscript) was added, and the reaction was terminated by adding a quencher after incubation at room temperature for 40 min. A final concentration of 10 nM Eu-anti-P (PY20) antibody (Cisbio#AD0066) and 15 nM APC-Streptavidin (Cisbio#AD0201) was added and incubated at room temperature for 1 hour. The fluorescence values of the reacted 384-well plates were read at 620 nm and 665 nm using Envision, and the IC50 value of inhibiting PTPN2 enzyme activity (PTPN 2 IC50) was fitted by nonlinear regression analysis of a four-parameter logistic equation.
In general terms: In TR-FRET formats the signal depends on donor and acceptor labels being close together.

For the next assay, the system named is B16F10 cells. Briefly: B16F10 mIFNγ-induced cell growth inhibition assay (CTG). It is filed as cell-based. As to the method: 40 µL (150 cells/well) of B16F10 cells (source ATCC Cat#CRL-6475) were inoculated into a 384-well plate, and the compounds were transferred to the 384-well plate containing cells using EHCO. One group of cells was added with 10 µL of complete medium (RPMI 1640 medium+10% FBS) without mIFNγ, one group was added with 10 µL of complete medium containing mIFNγ (source R&D Cat#485-MI/CF, final concentration 25 ng/ml), and different concentrations of compounds (DMSO content 0.5%) were added to the reaction system. The cell culture plates were incubated at 37 °C in 5% CO2 for 96 h. 25 µL of CTG was added, Envision was used for reading, the cell growth inhibition IC50 value (Cell IC50) was fitted by nonlinear regression analysis using a four-parameter logistic equation with DMSO/mIFNγ as the negative control and [drawing 152] as the positive control.

Where [1] appears, read: Mus musculus, B16-F10, 96 h, B16F10 cells with mIFNγ final concentration 25 ng/ml, CTG readout.
The mark [2] stands for this setting: B16F10 cells with mIFNγ final concentration 25 ng/ml, 96 h, CTG readout.
[3] abbreviates: Mus musculus, B16-F10; B16F10 cells with mIFNγ final concentration 25 ng/ml, 96 h, CTG readout.

The term IC50 denotes the concentration at which inhibition is half-maximal. A higher IC50 goes with a need for much substance. In general, GI50 refers to the concentration giving 50% growth inhibition. A high value points to less potent growth inhibition. Take `CC(C)CCNCC1Cc2cc(O)c(N3CC(=O)NS3(=O)=O)c(F)c2/C1=C/F` (racemic) [Compound 4]: the 50% inhibitory concentration (IC50) at PTPN2 is ≤ 20 nM. In addition, in the assay with B16F10 cells (setting [1]), the GI50 fell in the range of 1000 to 10000 nM.
`CC(C)CCNCC1Cc2cc(O)c(N3CC(=O)NS3(=O)=O)c(F)c2/C1=C\F` (racemic) [Compound 7] had an IC50 against PTPN2 of 20 to 100 nM. In the assay with B16F10 cells (setting [1]), this compound had a GI50 of 10000 to 100000 nM.
At PTPN2, `CC(C)CCN[C@H]1Cc2c(cc(O)c(N3CC(=O)NS3(=O)=O)c2F)C2CC21` (single isomer, unassigned) [Compound 2] yielded a 50% inhibitory concentration (IC50) of 100 to 500 nM. The compound further returned a GI50 in the assay on B16F10 cells (setting [2]) of 10000 to 100000 nM.
`CC(C)CCN[C@H]1Cc2c(cc(O)c(N3CC(=O)NS3(=O)=O)c2F)C2CC21` (single isomer, unassigned) [Compound 3]: the IC50 against PTPN2 was ≤ 20 nM. In addition, the GI50 in the assay on B16F10 cells (setting [2]) is ≤ 1000 nM.
At PTPN2, `CC(C)CCNCC1Cc2cc(O)c(N3CC(=O)NS3(=O)=O)c(F)c2/C1=C/F` (single isomer, unassigned) [Compound 5] registered an IC50 of 100 to 500 nM. This compound came in with a GI50 with B16F10 cells (setting [2]) of 10000 to 100000 nM.
For `CC(C)CCNCC1Cc2cc(O)c(N3CC(=O)NS3(=O)=O)c(F)c2/C1=C/F` (single isomer, unassigned) [Compound 6], in that order: ≤ 20 nM and ≤ 1000 nM.
For the compound `CC(C)CCN[C@H]1Cc2c(cc(O)c(N3CC(=O)NS3(=O)=O)c2F)C2CC21` (some centres unmarked) [Compound 1], the IC50 against PTPN2 is ≤ 20 nM. This compound also displayed a GI50 in the assay on B16F10 cells (setting [1]) of 1000 to 10000 nM.
With `O=C1CN(c2c(O)cc3c(c2F)C[C@H](NCCCC(F)(F)F)C2CC32)S(=O)(=O)N1` (some centres unmarked) [Compound 8], on PTPN2, the IC50 was ≤ 20 nM. Moreover, in the assay on B16F10 cells (setting [1]), the GI50 is ≤ 1000 nM.
`CC(C)(CCN[C@H]1Cc2c(cc(O)c(N3CC(=O)NS3(=O)=O)c2F)C2CC21)C(F)(F)F` (some centres unmarked) [Compound 9]: the IC50 against PTPN2 was ≤ 20 nM. In the assay with B16F10 cells (setting [1]), the GI50 was in the range of 1000 to 10000 nM.
With `CC(C)(C)CCN[C@H]1Cc2c(cc(O)c(N3CC(=O)NS3(=O)=O)c2F)C2CC21` (some centres unmarked) [Compound 10], at PTPN2, the IC50 is ≤ 20 nM. Further, the GI50 in the assay on B16F10 cells (setting [3]) was in the range of 1000 to 10000 nM.
For `O=C1CN(c2c(O)cc3c(c2F)C[C@H](NCCC2CCCCC2)C2CC32)S(=O)(=O)N1` (some centres unmarked) [Compound 11] the same measures were ≤ 20 nM and 10000 to 100000 nM.
In the case of `O=C1CN(c2c(O)cc3c(c2F)C[C@H](NCC2CCCCO2)C2CC32)S(=O)(=O)N1` (some centres unmarked) [Compound 16], the IC50 at PTPN2 lay within 100 to 500 nM. The compound also gave a GI50 with B16F10 cells (setting [3]) of 1000 to 10000 nM.
For `O=C1CN(c2c(O)cc3c(c2F)C[C@H](NCCC2CCCC2)C2CC32)S(=O)(=O)N1` (some centres unmarked) [Compound 17], in that order: ≤ 20 nM and 1000 to 10000 nM.
